Test results taken from patent US12329753B2, “Phosphodiesterase inhibitor treatment” (Cyrano Therapeutics, Inc., priority 2008, dated 2025).
Marks after values point to notes of the source that are not given here.

What was measured:
patients with hyposmia = assay: Hedonic (H) value of odors, -100-0-+100 scale, open trial of oral theophylline; format: in vivo, human
Experimental: In addition, each patient graded the hedonic (H) value of each odor presented for these same odor concentrations (from 10^−2M—an absolute odor concentration using a −100-0-+100 scale). […] Results were obtained by calculating the arithmetical sum of each correct recognition response for each odor with respect to its pleasantness, unpleasantness or neutrality. Arithmetic M±SEM were obtained for each treatment group for each odor presented.
After determination of hyposmia, patients were treated in an open label, fixed design, controlled open trial. Patients were given an oral extended release theophylline in divided daily doses taken in the middle of breakfast and lunch. All patients were initially given 200 mg of theophylline; changes in this dose were made based upon subjective responses to therapy. If at a subsequent return visit, patients reported ≥5% subjective improvement in overall smell function, they continued on this same dose of theophylline and were reevaluated after four to six months of continued treatment. Results from any subsequent return from these improved patients were not included in any subsequent data report. All subsequent comparisons between treated and untreated patients were made only between those patients continuing in the study compared to their own measurements obtained in the untreated state. If patients reported <5% subjective improvement, their theophylline dose was increased by 200 mg daily and they were scheduled for retesting at the study site after two to four months at this new dosage. For patients that reported <5% improvement, this sequence continued until patients reached 800 mg of theophylline, at which time the study was considered completed.
(§1) Patients returned for reevaluation after two to four months of treatment. Measurements of blood serum theophylline were measured by a fluorescence polarization assay (Abbott, Chicago, IL). At this time, subjective changes in smell function were measured independently (compared to patient's memory of previous normal smell function monitored by use of the patients' daily measurements) using the scale from −100-0-+100 previously described (vs). After independently recording their subjective responses, smell function was measured for all four odors with DT, RT, ME and H determined without recourse to prior measurements.

[1] = Blood serum theophylline, fluorescence polarization assay (Example 1); format: in vivo, human
Experimental: as §1

Hyposmic patients = assay: Open label trial of inhalable PDE inhibitor in hyposmic patients (Examples 3, 4); format: in vivo, human; details: nasal administration, not more than 500 μg
Experimental: Hyposmic patients for whom the etiology of smell loss is not associated with head injury or allergic rhinitis are enrolled in an open label trial of inhalable theophylline. Patients are started at an initial dose of not more than 500 μg formulated as a liquid spray or dry powder to be delivered as a metered dose. Initially only local patients are enrolled so that quicker dose titration is achieved. Groups of 5 patients are started on not more than 500 μg of theophylline and continued for 1 month.
Patients are tested for improvement in smell acuity using the standard forced choice technique using four odors as described in Example 1. Additionally, subjective measurements of smell function are obtained using a scale from 0-100 as described in Example 1. Blood samples are also drawn to ascertain blood theophylline level to gauge its relationship to the expected recovery of smell.
Hyposmic patients for whom the etiology of smell loss is not associated with head injury or allergic rhinitis are enrolled in an open label trial of an inhalable PDE1 inhibitor. […]

total PDE activity = details: human lung extracts; therapeutic concentrations; cited from earlier work
[2] = oral 400 mg daily, 2-6 months, all patients (120), mean ± SEM
[3] = oral 600 mg daily, 2-12 months, all patients (160), mean ± SEM
[4] = oral 800 mg daily, 2-12 months, all patients (28), mean ± SEM
[5] = oral 800 mg, Type I hyposmia (12), mean ± SEM

Cn1c(=O)c2[nH]cnc2n(C)c1=O [theophylline]
increase in H, amyl acetate (patients with hyposmia; oral 200 mg): 2%
increase in H, nitrobenzene (patients with hyposmia; oral 200 mg): 2%
increase of H value, amyl acetate (patients with hyposmia; oral 200 mg, not statistically significant): 50%
change in H (more pleasant), amyl acetate (patients with hyposmia; oral 400 mg): 1%
change in H (more pleasant), nitrobenzene (patients with hyposmia; oral 400 mg): 4%
change in H, pyridine (patients with hyposmia; oral 400 mg): 9%
change in H, thiophene (patients with hyposmia; oral 400 mg): 7%
decrease of H value, thiophene (patients with hyposmia; oral 400 mg): 40%
hedonic estimation (H), amyl acetate (patients with hyposmia; [2]): 3 ± 2^ %
hedonic estimation (H), nitrobenzene (patients with hyposmia; [2]): 8 ± 3^a %
hedonic estimation (H), pyridine (patients with hyposmia; [2]): −26 ± 3^b %
hedonic estimation (H), thiophene (patients with hyposmia; [2]): −19 ± 2^d %
increase of H value, nitrobenzene (patients with hyposmia; oral 400 mg, not statistically significant): 50%
hedonic estimation (H), amyl acetate (patients with hyposmia; [3]): 4 ± 1%
hedonic estimation (H), nitrobenzene (patients with hyposmia; [3]): 8 ± 2^d %
hedonic estimation (H), pyridine (patients with hyposmia; [3]): −19 ± 2 ^ %
hedonic estimation (H), thiophene (patients with hyposmia; [3]): −14 ± 2 ^ %
decrease of H value, pyridine (patients with hyposmia; oral 800 mg): 55%
decrease of H value, thiophene (patients with hyposmia; oral 800 mg): 37%
increase of H value, amyl acetate (patients with hyposmia; oral 800 mg): about 50%
increase of H value, nitrobenzene (patients with hyposmia; oral 800 mg): about 50%
hedonic estimation (H), amyl acetate (patients with hyposmia; [4]): 8 ± 5%
hedonic estimation (H), nitrobenzene (patients with hyposmia; [4]): 13 ± 7 ^ %
hedonic estimation (H), pyridine (patients with hyposmia; [4]): −22 ± 6%
hedonic estimation (H), thiophene (patients with hyposmia; [4]): −15 ± 4%
hedonic value (row printed R), amyl acetate (patients with hyposmia; [5]): −1 ± 4 ^ %
hedonic value (row printed R), nitrobenzene (patients with hyposmia; [5]): 2 ± 2^a %
hedonic value (row printed R), pyridine (patients with hyposmia; [5]): −11 ± 5^a %
hedonic value (row printed R), thiophene (patients with hyposmia; [5]): −4 ± 2^a %
mean serum theophylline ([1]; oral 200 mg daily): 4.0±0.2
mean serum theophylline ([1]; oral 400 mg daily): 7.4±0.4
recovery of smell acuity versus oral administration (Hyposmic patients): at least an equivalent recovery of smell acuity
inhibition of total PDE activity (total PDE activity): 5 to 10%
